Reference: ChEMBL document CHEMBL1138603, “New Labdane diterpenes as intestinal alpha-glucosidase inhibitor from antihyperglycemic extract of Hedychium spicatum (Ham. Ex Smith) rhizomes” (Bioorg Med Chem Lett, 2009)
Activity calls are given as the source filed them. The calls are words filed in the database; no cut-off is given here.

What was measured:
Rattus norvegicus = organism: Rattus norvegicus; assay: Inhibition of rat intestinal alpha-glucosidase activity at 100 ugmL
[1] = Inhibition of rat intestinal alpha-glucosidase activity

SMILES | inhibition (Rattus norvegicus) | IC50 [1] [µM]
CC1=CC(=O)[C@H]2C(C)(C)CCC[C@]2(C)[C@H]1/C=C/c1ccoc1 | 55.6% | 
CC1=CC(=O)[C@H]2C(C)(C)CCC[C@]2(C)[C@H]1/C=C/C1=CC(=O)O[C@H]1O [SPICATANOL] | 89.5% | 34.1
CO[C@@H]1OC(=O)C=C1/C=C/[C@H]1C(C)=CC(=O)[C@H]2C(C)(C)CCC[C@]12C | 54.1% | 
C=C1[C@@H](O)CC2C(C)(C)CCC[C@]2(C)[C@H]1C/C=C1\CCOC1=O (stereo partly specified) | 11.3% | 
CC1=C(O)C(=O)[C@H]2C(C)(C)CCC[C@]2(C)[C@H]1/C=C/c1ccoc1 | 13.5% | 
CC(=O)OC1=C(C)[C@H](/C=C/c2ccoc2)[C@@]2(C)CCCC(C)(C)[C@@H]2C1=O | 25.7% | 
C[C@H]1O[C@H](O[C@H]2[C@H](O)[C@@H](O)[C@@H](O[C@H]3[C@H](O)[C@@H](O)C(O)O[C@@H]3CO)O[C@@H]2CO)[C@H](O)[C@@H](O)[C@@H]1N[C@H]1C=C(CO)[C@@H](O)[C@H](O)[C@H]1O (stereo partly specified) [ACARBOSE] |  | 23.8
C=C1CC[C@H]2C(C)(C)CCC[C@]2(C)[C@H]1C | inactive | 
CC1=CC(=O)[C@H]2C(C)(C)CCC[C@]2(C)[C@H]1/C=C/C1=CC(=O)OC1 | 35.1% | 
CC1(C)CCC[C@]2(C)[C@@H](/C=C/c3ccoc3)C(CO)=CC(=O)[C@@H]12 | 15.1% | 
